TGI and GI50 data for 11 molecules are collected here from PubChem BioAssay (NCI).

Where “and” joins values, the source holds several entries; their conditions need not be identical. Identical values can stand only once.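 A five-concentration, 48-hour dose response in 96-well plates underlies each endpoint, interpolated linearly between surrounding concentrations. Abbreviation: GI50, concentration required for 50% inhibition of growth. The concentration for full growth arrest is given as TGI.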

Test systems include IGROV1 ovarian; M14 melanoma; OVCAR-3 ovarian; SF-295 CNS; SK-MEL-28 melanoma; SK-OV-3 ovarian; TK-10 renal; A498 renal; EKVX NSCLC; SK-MEL-5 melanoma.
Assay in all cases: NCI-60 cell line screen, 48 h

For `CCCCCCCCCCCc1nnc(N)o1`, the TGI in the assay on IGROV1 ovarian, in the assay with M14 melanoma, in the assay with OVCAR-3 ovarian, in the assay with SF-295 CNS, with SK-MEL-28 melanoma and in the assay on SK-OV-3 ovarian was more than 100 µM each time. The TGI with TK-10 renal is more than 100 µM.

Consider `C[C@]12C[C@H](CCCCCCNCCOC(=O)NCCCc3ccc(N(CCCl)CCCl)cc3)C3=C4CCC(=O)C=C4CCC3C1CC[C@@H]2O` (stereo not given in full), for which the GI50 in the assay with A498 renal was 1.93 µM; in the assay with EKVX NSCLC, 2.07 µM; with IGROV1 ovarian, 0.334 µM; with M14 melanoma, 2.9 µM; with SF-295 CNS it was 2.07 µM; with SK-MEL-5 melanoma, 1.47 µM. The GI50 in the assay with TK-10 renal is 1.85 µM. The TGI in the assay with A498 renal was 3.56 µM; in the assay with EKVX NSCLC, 4.05 µM; in the assay on IGROV1 ovarian it was 2.11 µM; in the assay on M14 melanoma, 7.29 µM; in the assay with SF-295 CNS, more than 100 µM; in the assay on SK-MEL-5 melanoma, 3.02 µM. For the same molecule, in the assay on TK-10 renal, the TGI was found to be 4.49 µM.

As for `O=C(O)C1=C(O)C(C(=O)O)C23CCCCCCCCCCC12C(C(=O)O)C(O)=C3C(=O)O` (stereo not given), the TGI in the assay on EKVX NSCLC, in the assay on IGROV1 ovarian, in the assay on M14 melanoma, with OVCAR-3 ovarian, with SF-295 CNS and in the assay on SK-MEL-28 melanoma was more than 100 µM throughout. Moreover, the TGI in the assay with SK-MEL-5 melanoma, in the assay with SK-OV-3 ovarian and with TK-10 renal was more than 100 µM in each case.

On to `CCOC(=O)/C(C=Nc1ccc(-c2nc3ccccc3[nH]2)cc1)=C(/C)O`, for which the GI50 was 11.9 µM in the assay on EKVX NSCLC; 7.35 µM in the assay with IGROV1 ovarian; 12.7 µM with M14 melanoma; 12.7 µM with OVCAR-3 ovarian; 16.4 µM in the assay with SF-295 CNS; 7.71 µM in the assay with SK-MEL-5 melanoma. Also, the results for the GI50 with SK-OV-3 ovarian and in the assay with TK-10 renal were 22.2 µM and 25.4 µM, respectively. The TGI in the assay on EKVX NSCLC is 38.9 µM; in the assay on IGROV1 ovarian it was 16.2 µM; in the assay with M14 melanoma it was 32 µM; in the assay with OVCAR-3 ovarian, 31.7 µM; with SF-295 CNS, more than 50 µM; in the assay with SK-MEL-5 melanoma, 15.5 µM. Moreover, the TGI with SK-OV-3 ovarian and in the assay with TK-10 renal was more than 50 µM each time.

Turning to `C=C(C)C(O)CCC1(C)C=Cc2c(c(C)cc3c2[nH]c2ccccc23)O1` (stereo not given), the TGI with A498 renal is 26.6 µM; in the assay on IGROV1 ovarian, 25 µM and 22 µM; in the assay with M14 melanoma, 10.9 µM and 19.7 µM; in the assay on OVCAR-3 ovarian, 24 µM and 22 µM; in the assay on SF-295 CNS, 14.8 µM; in the assay on SK-MEL-28 melanoma it was 25 µM. The TGI is 25 µM and 21.7 µM with SK-MEL-5 melanoma; 25 µM and 22.9 µM with SK-OV-3 ovarian; > 25 µM and 27 µM in the assay on TK-10 renal. For the same molecule, the GI50 with IGROV1 ovarian was 8.33 µM; with M14 melanoma, 6.63 µM; with OVCAR-3 ovarian, 10.3 µM; in the assay on SK-MEL-5 melanoma, 10.1 µM; in the assay on SK-OV-3 ovarian, 11 µM; in the assay with TK-10 renal, 14 µM.

As to `O=C1C(Cl)=C(Nc2cccc(F)c2)C(=O)N1Cc1ccc(Cl)cc1`, the GI50 with A498 renal is 2.42 µM; in the assay with IGROV1 ovarian, 2.92 µM; with M14 melanoma, 1.2 µM; in the assay on OVCAR-3 ovarian, 1.19 µM; with SF-295 CNS, 1.16 µM; with SK-MEL-28 melanoma it was 2.96 µM. Besides, the figures for the GI50 with SK-MEL-5 melanoma, with SK-OV-3 ovarian and in the assay on TK-10 renal were 0.403 µM, 2.59 µM and 5.7 µM, respectively. Moreover, the TGI in the assay with A498 renal is 8.99 µM; in the assay on IGROV1 ovarian, 16.9 µM; with M14 melanoma, 4.35 µM; with OVCAR-3 ovarian, 6.84 µM; in the assay on SF-295 CNS it was 10.9 µM; in the assay with SK-MEL-28 melanoma, 20.6 µM. Further, the TGI in the assay with SK-MEL-5 melanoma was determined as 2.19 µM; in the assay on SK-OV-3 ovarian, 17.6 µM; in the assay on TK-10 renal it was 19.3 µM.

In the case of `CC1=C(C(=O)Nc2cc(=O)n(C)c(=O)n2C)C(c2ccco2)C(C(=O)Nc2cc(=O)n(C)c(=O)n2C)=C(C)N1`, the TGI in the assay with A498 renal, in the assay with EKVX NSCLC, in the assay on IGROV1 ovarian, with M14 melanoma, with OVCAR-3 ovarian and in the assay with SF-295 CNS was more than 100 µM in each case. In addition, the TGI with SK-MEL-28 melanoma, in the assay on SK-MEL-5 melanoma and with TK-10 renal was more than 100 µM in each case.

With `OC(Cc1ccncc1)C(Cl)(Cl)Cl` (stereo not given), the GI50 in the assay with EKVX NSCLC was 86.3 µM; in the assay with M14 melanoma it was more than 100 µM; in the assay with OVCAR-3 ovarian it was 17.4 µM; with SF-295 CNS, 7.83 µM; in the assay on SK-MEL-28 melanoma it was more than 100 µM; in the assay with SK-OV-3 ovarian it was more than 100 µM. In addition, in the assay with TK-10 renal, the GI50 is more than 100 µM. Besides, the TGI with EKVX NSCLC, in the assay with M14 melanoma, in the assay with OVCAR-3 ovarian, in the assay on SF-295 CNS, in the assay on SK-MEL-28 melanoma and with SK-OV-3 ovarian was more than 100 µM each time. The same molecule had a TGI in the assay on TK-10 renal of more than 100 µM.

In the case of `CCOC(=O)c1c(C)nc2c(c1N)CC(=O)N2Cc1ccc(OC)cc1`, the GI50 in the assay on EKVX NSCLC is 7.91 µM; in the assay with IGROV1 ovarian, 80.3 µM; with M14 melanoma, more than 100 µM; in the assay with OVCAR-3 ovarian it was 6.24 µM; in the assay with SF-295 CNS, 2.53 µM; in the assay on SK-MEL-28 melanoma it was more than 100 µM. For the same molecule, the results for the GI50 in the assay on SK-MEL-5 melanoma and with TK-10 renal were more than 100 µM and 5.12 µM, respectively. Further, the TGI with EKVX NSCLC is more than 100 µM; with IGROV1 ovarian, more than 100 µM; in the assay on M14 melanoma, more than 100 µM; with OVCAR-3 ovarian it was more than 100 µM; in the assay on SF-295 CNS, 7.37 µM; with SK-MEL-28 melanoma, more than 100 µM. In addition, the TGI in the assay with SK-MEL-5 melanoma and with TK-10 renal was more than 100 µM in each case.

In the case of `COc1ccc(-c2cc3c(c4cc(OC)ccc24)C(=O)OC3=O)cc1`, the TGI with EKVX NSCLC, with IGROV1 ovarian, in the assay on M14 melanoma, in the assay on OVCAR-3 ovarian, in the assay with SF-295 CNS and in the assay on SK-MEL-28 melanoma was more than 100 µM each time. The TGI with SK-MEL-5 melanoma, with SK-OV-3 ovarian and in the assay with TK-10 renal was more than 100 µM in each case.

On to `CC1(C)C2CCC13C(=O)C1OC3(C2)C2C(=O)c3cc4ccccc4cc3C(=O)C12` (stereo not given), for which the GI50 was 10.7 µM with M14 melanoma, 8.36 µM in the assay on SK-MEL-28 melanoma, 12.2 µM in the assay on SK-OV-3 ovarian and 12.9 µM in the assay with TK-10 renal. Besides, the TGI with M14 melanoma is more than 100 µM; in the assay on SK-MEL-28 melanoma, more than 100 µM; in the assay on SK-OV-3 ovarian, 67.4 µM; in the assay with TK-10 renal it was 44.5 µM.
